According to the supplement of paper PMC11451515:

Key:
Settings in all cases: 48 h
P12-Ichikawa [1] = test: AUC of viability dose-response curve (% viability x log10 dose units); higher = less sensitive
Method in brief: (§1)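 Leukemia cells adapted to each medium (500 or 1000 cells/well, 1536-well plates) were exposed to library compounds in DMSO for 48 h at 37°C at 11 threefold doses, 47 μM to 0.79 nM. Luminescence by CellTiter-Glo One was normalised per plate to DMSO and cell-free wells, then fitted with a four-parameter log-logistic curve on log10 dose. Curves above full viability were scaled and quality-control failures removed before area under the curve was integrated by trapezoidal rule.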

SEM cells [2] = test: as above
Method in brief: as §1

NOMO1 [3] = test: as above
Method in brief: as §1

P12-Ichikawa [4] = test: cell viability relative to DMSO control; higher = less cytotoxic
Method in brief: (§2)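 In 1536-well plates, 5 μl of leukemia cells were seeded per well: 500 cells/well for NOMO1 or SEM and 1000 cells/well for P12-Ichikawa. Each line had first been adapted for at least four passages in each medium. Library compounds in DMSO were pin-dosed at 11 threefold concentrations between 47 μM and 0.79 nM, and CellTiter-Glo One luminescence was read after 48 h at 37°C. Viability is a per-plate percentage relative to DMSO wells, with cell-free wells as background.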

SEM cells [5] = test: as above
Method in brief: as §2

NOMO1 [6] = test: as above
Method in brief: as §2

COC[C@H](c1ccc(C(F)(F)F)cc1)N1CCN(C2(C)CCN(C(=O)c3c(C)ncnc3C)CC2)C[C@H]1C.O=C(O)/C=C\C(=O)O
AUC of viability dose-response curve
Settings	NOMO1 [3]	P12-Ichikawa [1]	SEM cells [2]
HPLM + 10% dialyzed FBS	409	469	445
RPMI 5 mM glucose + 10% FBS	411	454	410
RPMI 5 mM glucose + 10% dialyzed FBS	424	467	450

cell viability [%]
Settings	NOMO1 [6]	P12-Ichikawa [4]	SEM cells [5]
HPLM + 10% dialyzed FBS, 0.000781 µM	85.7	92	80.5
HPLM + 10% dialyzed FBS, 0.00234 µM	106	100	98.2
HPLM + 10% dialyzed FBS, 0.00702 µM	106	107	105
HPLM + 10% dialyzed FBS, 0.0211 µM	107	111	93.5
HPLM + 10% dialyzed FBS, 0.0632 µM	114	107	90
HPLM + 10% dialyzed FBS, 0.19 µM	99.8	110	104
HPLM + 10% dialyzed FBS, 0.569 µM	111	113	90.2
HPLM + 10% dialyzed FBS, 1.71 µM	70.7	117	92
HPLM + 10% dialyzed FBS, 5.12 µM	63.5	106	99.8
HPLM + 10% dialyzed FBS, 15.4 µM	62.2	103	95.4
HPLM + 10% dialyzed FBS, 46.1 µM	49.9	98.5	61.8
RPMI 5 mM glucose + 10% FBS, 0.000781 µM	87.9	101	66
RPMI 5 mM glucose + 10% FBS, 0.00234 µM	95.7	123	94.5
RPMI 5 mM glucose + 10% FBS, 0.00702 µM	101	109	82.9
RPMI 5 mM glucose + 10% FBS, 0.0211 µM	97.5	110	97.5
RPMI 5 mM glucose + 10% FBS, 0.0632 µM	93.8	106	85.6
RPMI 5 mM glucose + 10% FBS, 0.19 µM	103	121	87.6
RPMI 5 mM glucose + 10% FBS, 0.569 µM	91	109	84.5
RPMI 5 mM glucose + 10% FBS, 1.71 µM	83.8	104	99.6
RPMI 5 mM glucose + 10% FBS, 5.12 µM	65.1	105	92.4
RPMI 5 mM glucose + 10% FBS, 15.4 µM	56.3	99.8	83.8
RPMI 5 mM glucose + 10% FBS, 46.1 µM	62.8	99.3	59.6
RPMI 5 mM glucose + 10% dialyzed FBS, 0.000781 µM	83.9	90.1	85.2
RPMI 5 mM glucose + 10% dialyzed FBS, 0.00234 µM	108	108	93.2
RPMI 5 mM glucose + 10% dialyzed FBS, 0.00702 µM	92	99.7	97.1
RPMI 5 mM glucose + 10% dialyzed FBS, 0.0211 µM	104	110	108
RPMI 5 mM glucose + 10% dialyzed FBS, 0.0632 µM	99.8	103	88.6
RPMI 5 mM glucose + 10% dialyzed FBS, 0.19 µM	105	111	97.3
RPMI 5 mM glucose + 10% dialyzed FBS, 0.569 µM	101	117	103
RPMI 5 mM glucose + 10% dialyzed FBS, 1.71 µM	91.8	110	104
RPMI 5 mM glucose + 10% dialyzed FBS, 5.12 µM	75	102	84
RPMI 5 mM glucose + 10% dialyzed FBS, 15.4 µM	50.9	95.2	98
RPMI 5 mM glucose + 10% dialyzed FBS, 46.1 µM	51.7	92.1	65.8

NC(=O)c1cccc2nc(-c3ccc([C@H]4CCCN4)cc3F)[nH]c12
AUC of viability dose-response curve
Settings	NOMO1 [3]	P12-Ichikawa [1]	SEM cells [2]
HPLM + 10% dialyzed FBS	464	463	398
RPMI 5 mM glucose + 10% FBS	472	466	363
RPMI 5 mM glucose + 10% dialyzed FBS	466	465	362

cell viability [%]
Settings	NOMO1 [6]	P12-Ichikawa [4]	SEM cells [5]
HPLM + 10% dialyzed FBS, 0.000781 µM	112	99.9	86.3
HPLM + 10% dialyzed FBS, 0.00234 µM	120	110	93.6
HPLM + 10% dialyzed FBS, 0.00702 µM	108	105	116
HPLM + 10% dialyzed FBS, 0.0211 µM	133	114	113
HPLM + 10% dialyzed FBS, 0.0632 µM	116	115	113
HPLM + 10% dialyzed FBS, 0.19 µM	131	111	110
HPLM + 10% dialyzed FBS, 0.569 µM	128	120	109
HPLM + 10% dialyzed FBS, 1.71 µM	106	114	86.9
HPLM + 10% dialyzed FBS, 5.12 µM	119	105	61.6
HPLM + 10% dialyzed FBS, 15.4 µM	107	95.8	39.8
HPLM + 10% dialyzed FBS, 46.1 µM	81.5	84.2	21.8
RPMI 5 mM glucose + 10% FBS, 0.000781 µM	95.8	97	81.3
RPMI 5 mM glucose + 10% FBS, 0.00234 µM	95.4	97.6	80.4
RPMI 5 mM glucose + 10% FBS, 0.00702 µM	104	100	103
RPMI 5 mM glucose + 10% FBS, 0.0211 µM	114	105	93.7
RPMI 5 mM glucose + 10% FBS, 0.0632 µM	125	114	98.6
RPMI 5 mM glucose + 10% FBS, 0.19 µM	107	113	97.9
RPMI 5 mM glucose + 10% FBS, 0.569 µM	117	123	98.3
RPMI 5 mM glucose + 10% FBS, 1.71 µM	107	112	70.4
RPMI 5 mM glucose + 10% FBS, 5.12 µM	101	109	45.9
RPMI 5 mM glucose + 10% FBS, 15.4 µM	105	103	31.8
RPMI 5 mM glucose + 10% FBS, 46.1 µM	89.6	70.1	15.3
RPMI 5 mM glucose + 10% dialyzed FBS, 0.000781 µM	102	99.5	86.2
RPMI 5 mM glucose + 10% dialyzed FBS, 0.00234 µM	112	105	103
RPMI 5 mM glucose + 10% dialyzed FBS, 0.00702 µM	117	110	111
RPMI 5 mM glucose + 10% dialyzed FBS, 0.0211 µM	121	119	85.7
RPMI 5 mM glucose + 10% dialyzed FBS, 0.0632 µM	118	109	87.8
RPMI 5 mM glucose + 10% dialyzed FBS, 0.19 µM	114	119	109
RPMI 5 mM glucose + 10% dialyzed FBS, 0.569 µM	132	121	93.1
RPMI 5 mM glucose + 10% dialyzed FBS, 1.71 µM	130	116	64.8
RPMI 5 mM glucose + 10% dialyzed FBS, 5.12 µM	120	120	36.3
RPMI 5 mM glucose + 10% dialyzed FBS, 15.4 µM	109	107	29.6
RPMI 5 mM glucose + 10% dialyzed FBS, 46.1 µM	81.3	65.1	9
